Reference: ChEMBL document CHEMBL5390221, “Synthesis and biological activity assay of novel camptothecin-peptidic conjugates based on PEPT1” (Bioorg Med Chem Lett, 2023)
pIC50: −log10 of the molar value.

Experiments:
Hep 3B2 = assay: Cytotoxicity against human Hep3B cells assessed as inhibition of cell growth; format: functional, cell-based
DU-145 = assay: Cytotoxicity against human DU-145 cells assessed as inhibition of cell growth; format: functional, cell-based
HepG2 = assay: Cytotoxicity against human HepG2 cells assessed as inhibition of cell growth; format: functional, cell-based
NCI-H520 = assay: Cytotoxicity against human NCI-H520 cells assessed as inhibition of cell growth; format: functional, cell-based
BXPC-3 = assay: Cytotoxicity against human BXPC-3 cells assessed as inhibition of cell growth; format: functional, cell-based
[1] = Cytotoxicity against human MPC2 cells assessed as inhibition of cell growth; format: functional, cell-based
[2] = biological target: T1, Solute carrier family 15 member 1 (Homo sapiens) (UniProt P46059); assay: Inhibition of PEPT1 (unknown origin) expressed in HEK293T cells assessed as inhibition of PEPT1 mediated Gly-Sar uptake using Gly-Sar as substrate at 20 uM relative to control; format: cell-based
T1 sequence (whole entry): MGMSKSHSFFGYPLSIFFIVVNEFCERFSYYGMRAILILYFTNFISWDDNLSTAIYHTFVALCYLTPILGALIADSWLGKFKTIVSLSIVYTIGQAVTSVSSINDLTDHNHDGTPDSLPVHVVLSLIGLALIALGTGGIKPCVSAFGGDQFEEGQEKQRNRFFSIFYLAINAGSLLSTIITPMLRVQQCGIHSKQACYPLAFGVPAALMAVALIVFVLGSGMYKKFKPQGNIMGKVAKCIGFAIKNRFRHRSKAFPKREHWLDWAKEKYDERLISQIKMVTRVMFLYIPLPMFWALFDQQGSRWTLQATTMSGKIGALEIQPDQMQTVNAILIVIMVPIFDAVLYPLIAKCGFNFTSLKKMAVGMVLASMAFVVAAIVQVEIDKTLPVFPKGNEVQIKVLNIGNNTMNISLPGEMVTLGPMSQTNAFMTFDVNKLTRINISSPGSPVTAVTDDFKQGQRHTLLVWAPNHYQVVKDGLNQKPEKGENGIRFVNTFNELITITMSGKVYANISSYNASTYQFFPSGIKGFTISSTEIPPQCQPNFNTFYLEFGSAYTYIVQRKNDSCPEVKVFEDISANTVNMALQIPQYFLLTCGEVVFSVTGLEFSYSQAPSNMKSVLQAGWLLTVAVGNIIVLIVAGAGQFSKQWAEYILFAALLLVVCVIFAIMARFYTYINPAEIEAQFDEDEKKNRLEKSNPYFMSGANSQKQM

inhibition [2] [%]	SMILES	pIC50 (Hep 3B2)	pIC50 (DU-145)	pIC50 (HepG2)	pIC50 (NCI-H520)	pIC50 (BXPC-3)	pIC50 [1]
–	CC[C@@]1(OC(=O)CNC(=O)[C@@H](NC(=O)OC(C)(C)C)C(C)C)C(=O)OCc2c1cc1n(c2=O)Cc2cc3ccccc3nc2-1	6.06	7.10	6.70	7.11	6.84	6.69
–	CC[C@@]1(OC(=O)CNC(=O)[C@H](Cc2ccccc2)NC(=O)OC(C)(C)C)C(=O)OCc2c1cc1n(c2=O)Cc2cc3ccccc3nc2-1	5.95	7.13	7.13	7.26	7.01	6.69
> 50	CC[C@@]1(OC(=O)CNC(=O)[C@H](Cc2ccccc2)NC(C)=O)C(=O)OCc2c1cc1n(c2=O)Cc2cc3ccccc3nc2-1	6.01	7.29	7.22	7.25	7.05	6.99
–	CC[C@H](C)[C@H](NC(=O)OC(C)(C)C)C(=O)NCC(=O)O[C@]1(CC)C(=O)OCc2c1cc1n(c2=O)Cc2cc3ccccc3nc2-1	5.75	7.01	6.75	7.23	6.65	6.78
> 50	CC[C@@]1(OC(=O)CNC(=O)[C@@H](NC(C)=O)C(C)C)C(=O)OCc2c1cc1n(c2=O)Cc2cc3ccccc3nc2-1	6.04	7.06	6.82	6.90	7.26	6.68
–	CC[C@@]1(OC(=O)CNC(=O)CNC(C)=O)C(=O)OCc2c1cc1n(c2=O)Cc2cc3ccccc3nc2-1	6.12	7.12	7.23	7.01	7.12	6.82
–	CC[C@@]1(OC(=O)CNC(=O)[C@H](C)NC(=O)OC(C)(C)C)C(=O)OCc2c1cc1n(c2=O)Cc2cc3ccccc3nc2-1	6.07	7.17	6.94	7.17	7.03	6.74
> 50	CCCC(=O)NCC(=O)O[C@]1(CC)C(=O)OCc2c1cc1n(c2=O)Cc2cc3ccccc3nc2-1	5.82	7.26	7.04	6.81	6.81	6.97
> 50	CCC(=O)NCC(=O)O[C@]1(CC)C(=O)OCc2c1cc1n(c2=O)Cc2cc3ccccc3nc2-1	6.00	7.28	6.96	6.78	6.91	6.81
–	CC[C@@]1(OC(=O)CNC(=O)[C@H](CC(C)C)NC(=O)OC(C)(C)C)C(=O)OCc2c1cc1n(c2=O)Cc2cc3ccccc3nc2-1	5.98	7.35	7.06	7.46	6.79	6.90
–	CC[C@@]1(OC(=O)CNC(=O)[C@H](C)NC(C)=O)C(=O)OCc2c1cc1n(c2=O)Cc2cc3ccccc3nc2-1	6.00	7.17	7.05	7.16	6.97	7.04
> 50	CC[C@@]1(OC(=O)CNC(=O)[C@H](CCC(N)=O)NC(=O)OC(C)(C)C)C(=O)OCc2c1cc1n(c2=O)Cc2cc3ccccc3nc2-1	6.00	6.84	6.84	6.87	6.92	6.41
–	CCCCCC(=O)NCC(=O)O[C@]1(CC)C(=O)OCc2c1cc1n(c2=O)Cc2cc3ccccc3nc2-1	5.82	7.34	6.94	6.79	6.98	7.10
> 50	CC[C@@]1(OC(=O)CNC(=O)[C@H](CC(N)=O)NC(=O)OC(C)(C)C)C(=O)OCc2c1cc1n(c2=O)Cc2cc3ccccc3nc2-1	6.11	7.05	7.05	7.24	7.07	6.59
–	CC[C@H](C)[C@H](NC(C)=O)C(=O)NCC(=O)O[C@]1(CC)C(=O)OCc2c1cc1n(c2=O)Cc2cc3ccccc3nc2-1	6.07	7.03	7.15	6.96	6.82	6.71
–	CC[C@@]1(OC(=O)CNC(=O)C(C)C)C(=O)OCc2c1cc1n(c2=O)Cc2cc3ccccc3nc2-1	6.01	7.26	6.89	7.06	6.78	7.01
–	CC[C@@]1(O)C(=O)OCc2c1cc1n(c2=O)Cc2cc3ccccc3nc2-1 [CAMPTOTHECIN]	6.36	7.48	7.48	7.60	7.20	7.08
